In patent US12479831B2, “Substituted N(-methyl-D3)pyridazine-3-carboxamide or M-(methyl-D3)-nicotinamide compounds as IL-12, IL-23 and/or IFNα modulators” (BRISTOL-MYERS SQUIBB COMPANY, priority 2020, dated 2025):

Test system: IFNα-Induced STAT Phosphorylation in Human Whole Blood
Experiment: IFNα-Induced STAT Phosphorylation in Human Whole Blood
Type: cell-based
Settings: 1 h incubation with compound, 1000 U/mL recombinant human IFNα A/D for 15 min, pSTAT5 (pY694) median fluorescence intensity in CD3 positive population, read-out: hWB IC50
Description: IFNα-Induced STAT Phosphorylation in Human Whole Blood
After an hour long incubation with compound, human whole blood (drawn with either EDTA or ACD-A as anti-coagulant) was stimulated with 1000 U/mL recombinant human IFNα A/D (R&D Systems 11200-2) for 15 min. The stimulation was stopped by adding Fix/Lyse buffer (BD 558049). Cells were stained with a CD3 FITC antibody (BD 555916), washed, and permeabilized on ice using Perm III buffer (BD 558050). […] The amount of pSTAT5 expression was quantitated by median fluorescence intensity after gating on the CD3 positive population.
IFNα-Induced STAT Phosphorylation in Human Whole Blood Inhibition Data

IC50	Structure (SMILES)
254 nM	[2H]C([2H])([2H])NC(=O)c1nnc(NC(=O)C2CC2)cc1Nc1cccc(-c2ncc3ncn(C)c3n2)c1OC [Example 1, 6-(Cyclopropanecarboxamido)-4-((2-methoxy-3-(9-methyl-9H-purin-2-yl)phenyl)amino)-N-(methyl-d3)pyridazine-3-carboxamide]
426 nM	[2H]C([2H])([2H])NC(=O)c1nnc(NC(=O)C2CC2)cc1Nc1cccc(-c2ncc(C#N)cn2)c1OC [Example 2, 4-((3-(5-cyanopyrimidin-2-yl)-2-methoxyphenyl)amino)-6-(cyclopropanecarboxamido)-N-(methyl-d3)pyridazine-3-carboxamide]
144 nM	[2H]C([2H])([2H])NC(=O)c1nnc(NC(=O)C2CC2)cc1Nc1cccc(-c2nccc(C#N)n2)c1OC [Example 3, 4-((3-(4-cyanopyrimidin-2-yl)-2-methoxyphenyl)amino)-6-(cyclopropanecarboxamido)-N-(methyl-d3)pyridazine-3-carboxamide]
348 nM	[2H]C([2H])([2H])NC(=O)c1nnc(NC(=O)C2CCC2)cc1Nc1cccc(-c2ncccn2)c1OC [Example 4, 6-(cyclobutanecarboxamido)-4-((2-methoxy-3-(pyrimidin-2-yl)phenyl)amino)-N-(methyl-d3)pyridazine-3-carboxamide]
196 nM	[2H]C([2H])([2H])NC(=O)c1nnc(NC(=O)C2CC2)cc1Nc1cc(F)cc(-c2ncccn2)c1OC [Example 7, 6-(cyclopropanecarboxamido)-4-((5-fluoro-2-methoxy-3-(pyrimidin-2-yl)phenyl)amino)-N-(methyl-d3)pyridazine-3-carboxamide]
214 nM	[2H]C([2H])([2H])NC(=O)c1nnc(NC(=O)C2CC2)cc1Nc1cccc(-c2ccc(=O)n(C)n2)c1OC [Example 9, 6-(cyclopropanecarboxamido)-4-((2-methoxy-3-(1-methyl-6-oxo-1,6-dihydropyridazin-3-yl)phenyl)amino)-N-(methyl-d3)pyridazine-3-carboxamide]
194 nM	[2H]C([2H])([2H])NC(=O)c1nnc(NC(=O)C2CC2)cc1Nc1cccc(-c2cn(C)c(=O)cn2)c1OC [Example 10, 6-(cyclopropanecarboxamido)-4-((2-methoxy-3-(4-methyl-5-oxo-4,5-dihydropyrazin-2-yl)phenyl)amino)-N-(methyl-d3)pyridazine-3-carboxamide]
204 nM	[2H]C([2H])([2H])NC(=O)c1nnc(NC(=O)C2CC2)cc1Nc1cccc(-c2cc(=O)n(C)cn2)c1OC [Example 12, 6-(cyclopropanecarboxamido)-4-((2-methoxy-3-(1-methyl-6-oxo-1,6-dihydropyrimidin-4-yl)phenyl)amino)-N-(methyl-d3)pyridazine-3-carboxamide]
95 nM	[2H]C([2H])([2H])NC(=O)c1nnc(NC(=O)C2CC2)cc1Nc1cccc(-c2ncc(N3CCOCC3)cn2)c1OC [Example 13, 6-(cyclopropanecarboxamido)-4-((2-methoxy-3-(5-morpholinopyrimidin-2-yl)phenyl)amino)-N-(methyl-d3)pyridazine-3-carboxamide]
54 nM	[2H]C([2H])([2H])NC(=O)c1cnc(NC(=O)C2CC2)cc1Nc1cccc(-c2ncc(N3CCOCC3)cn2)c1OC [Example 16, 6-(cyclopropanecarboxamido)-4-((2-methoxy-3-(5-morpholinopyrimidin-2-yl)phenyl)amino)-N-(methyl-d3)nicotinamide]
120 nM	[2H]C([2H])([2H])NC(=O)c1nnc(NC(=O)C2CC2)cc1Nc1cc(F)cc(-c2ccc(C(C)(C)O)nn2)c1OC [Example 22, 6-(cyclopropanecarboxamido)-4-((5-fluoro-3-(6-(2-hydroxypropan-2-yl)pyridazin-3-yl)-2-methoxyphenyl)amino)-N-(methyl-d3)pyridazine-3-carboxamide]
32 nM	[2H]C([2H])([2H])NC(=O)c1nnc(NC(=O)C2CC2)cc1Nc1cccc(-c2ccc(C(C)(O)CC)nn2)c1OC (centres unmarked) [Example 23, 6-(cyclopropanecarboxamido)-4-((3-(6-(2-hydroxybutan-2-yl)pyridazin-3-yl)-2-methoxyphenyl)amino)-N-(methyl-d3)pyridazine-3-carboxamide]
167 nM	[2H]C([2H])([2H])NC(=O)c1nnc(NC(=O)C2CC2)cc1Nc1cc(F)cc(-c2cnc(C(C)O)cn2)c1OC (centres unmarked) [Example 24, 6-(cyclopropanecarboxamido)-4-((5-fluoro-3-(5-(1-hydroxyethyl)pyrazin-2-yl)-2-methoxyphenyl)amino)-N-(methyl-d3)pyridazine-3-carboxamide]
16 nM	[2H]C([2H])([2H])NC(=O)c1nnc(NC(=O)C2CC2)cc1Nc1cccc(-c2ncc(C(C)(O)CF)cn2)c1OC (centres unmarked) [Example 26, 6-(cyclopropanecarboxamido)-4-((3-(5-(1-fluoro-2-hydroxypropan-2-yl)pyrimidin-2-yl)-2-methoxyphenyl)amino)-N-(methyl-d3)pyridazine-3-carboxamide]
63 nM	[2H]C([2H])([2H])NC(=O)c1nnc(NC(=O)C2CC2)cc1Nc1cccc(-c2ncc(C3(O)CCC3)cn2)c1OC [Example 27, 6-(cyclopropanecarboxamido)-4-((3-(5-(1-hydroxycyclobutyl)pyrimidin-2-yl)-2-methoxyphenyl)amino)-N-(methyl-d3)pyridazine-3-carboxamide]
170 nM	[2H]C([2H])([2H])NC(=O)c1nnc(NC(=O)C2CC2)cc1Nc1cc(F)cc(-c2ncc(C3(O)CCC3)cn2)c1OC [Example 28, 6-(cyclopropanecarboxamido)-4-((5-fluoro-3-(5-(1-hydroxycyclobutyl)pyrimidin-2-yl)-2-methoxyphenyl)amino)-N-(methyl-d3)pyridazine-3-carboxamide]
39 nM	[2H]C([2H])([2H])NC(=O)c1nnc(NC(=O)C2CC2)cc1Nc1cccc(-c2ncc(C(O)(CF)CF)cn2)c1OC [Example 29, 6-(cyclopropanecarboxamido)-4-((3-(5-(1,3-difluoro-2-hydroxypropan-2-yl)pyrimidin-2-yl)-2-methoxyphenyl)amino)-N-(methyl-d3)pyridazine-3-carboxamide]
24 nM	[2H]C([2H])([2H])NC(=O)c1nnc(NC(=O)C2CC2)cc1Nc1cccc(-c2ncc(C3(O)CCOC3)cn2)c1OC (centres unmarked) [Example 31, 6-(cyclopropanecarboxamido)-4-((3-(5-(3-hydroxytetrahydrofuran-3-yl)pyrimidin-2-yl)-2-methoxyphenyl)amino)-N-(methyl-d3)pyridazine-3-carboxamide]
71 nM	[2H]C([2H])([2H])NC(=O)c1nnc(NC(=O)C2CC2)cc1Nc1cc(F)cc(-c2ncc(C(C)(O)CF)cn2)c1OC (centres unmarked) [Example 32, 6-(cyclopropanecarboxamido)-4-((5-fluoro-3-(5-(1-fluoro-2-hydroxypropan-2-yl)pyrimidin-2-yl)-2-methoxyphenyl)amino)-N-(methyl-d3)pyridazine-3-carboxamide]
43 nM	[2H]C([2H])([2H])NC(=O)c1nnc(NC(=O)C2CC2)cc1Nc1cccc(-c2cnc(C3(O)COC3)cn2)c1OC [Example 33, 6-(cyclopropanecarboxamido)-4-((3-(5-(3-hydroxyoxetan-3-yl)pyrazin-2-yl)-2-methoxyphenyl)amino)-N-(methyl-d3)pyridazine-3-carboxamide]
36 nM	[2H]C([2H])([2H])NC(=O)c1nnc(NC(=O)C2CC2)cc1Nc1cccc(-c2cnc(C3(O)CCOC3)cn2)c1OC (centres unmarked) [Example 34, 6-(cyclopropanecarboxamido)-4-((3-(5-(3-hydroxytetrahydrofuran-3-yl)pyrazin-2-yl)-2-methoxyphenyl)amino)-N-(methyl-d3)pyridazine-3-carboxamide]
107 nM	[2H]C([2H])([2H])NC(=O)c1nnc(NC(=O)C2CC2)cc1Nc1cccc(-c2cnc(C(C)(O)CF)cn2)c1OC (centres unmarked) [Example 35, 6-(cyclopropanecarboxamido)-4-((3-(5-(1-fluoro-2-hydroxypropan-2-yl)pyrazin-2-yl)-2-methoxyphenyl)amino)-N-(methyl-d3)pyridazine-3-carboxamide]
97 nM	[2H]C([2H])([2H])NC(=O)c1nnc(NC(=O)C2CC2)cc1Nc1cccc(-c2cnc(C(=O)N3CC[C@@H](F)C3)cn2)c1OC [Example 37, (R)-6-(cyclopropanecarboxamido)-4-((3-(5-(3-fluoropyrrolidine-1-carbonyl)pyrazin-2-yl)-2-methoxyphenyl)amino)-N-(methyl-d3)pyridazine-3-carboxamide]
44 nM	[2H]C([2H])([2H])NC(=O)c1nnc(NC(=O)C2CC2)cc1Nc1cccc(-c2cnc(C(=O)N3CCOCC3)cn2)c1OC [Example 38, 6-(cyclopropanecarboxamido)-4-((2-methoxy-3-(5-(morpholine-4-carbonyl)pyrazin-2-yl)phenyl)amino)-N-(methyl-d3)pyridazine-3-carboxamide]
218 nM	[2H]C([2H])([2H])NC(=O)c1nnc(NC(=O)C2CC2)cc1Nc1cccc(-c2cnc(C(=O)NC)cn2)c1OC [Example 39, 6-(cyclopropanecarboxamido)-4-((2-methoxy-3-(5-(methylcarbamoyl)pyrazin-2-yl)phenyl)amino)-N-(methyl-d3)pyridazine-3-carboxamide]
360 nM	[2H]C([2H])([2H])NC(=O)c1nnc(NC(=O)C2CC2)cc1Nc1cccc(-c2cnc(C(=O)N3CCC3)cn2)c1OC [Example 40, 4-((3-(5-(azetidine-1-carbonyl)pyrazin-2-yl)-2-methoxyphenyl)amino)-6-(cyclopropanecarboxamido)-N-(methyl-d3)pyridazine-3-carboxamide]
